{"source": "patent US20150320738A1", "about": "“BERBERINE-CONTAINING PHARMACEUTICAL COMPOSITION FOR INHIBITING CANCER STEM CELL GROWTH OR CARCINOMA METASTASIS AND APPLICATION THEREOF” (National Taiwan Normal University, priority 2011, published 2015)", "type_in_all_cases": "cell-based", "key": {"NCI-H460 cell line": {"test_system": "NCI-H460 cell line", "assay": "MTT cell proliferation assay, NCI-H460", "conditions": "Homo sapiens, 48 hours, read-out: half maximal inhibitory concentration (IC50)", "procedure": "(§1) NSCLC cell lines A549, NCI-H460, NCI-H520 and normal lung cell line MRC5 were obtained from Bioresource Collection and Research Center (BCRC, Taiwan). A549 cell line was cultured with F12K medium (21127, GIBCO, Carlsbad, U.S.A.). Both NCI-H460 and NCI-H520 cell lines were cultured with RPMI1640 medium (23400, GIBCO, Carlsbad, U.S.A.). MRC5 cell line was culture with MEM medium (41500, GIBCO, Carlsbad, U.S.A.). All media mentioned above contained 10% FBS (10437, GIBCO, Carlsbad, U.S.A.). All cultures were maintained in an incubator (Thermo forma 370, Waltham, U.S.A.) with 5% CO2 at 37° C. Cells were seeded at 1×10^4 cells per well in a 24-well plate for 16 hours. After that, a sample such as the berberine solutions with different concentrations and the extract of C. chinensis was added into 24-well plate directly, and cultured at 37° C. for 24, 48, and 72 hours, respectively. Thiazolyl blue tetrazolium bromide (MTT, m5655, Sigma, St. Louis, U.S.A.) solution was prepared in a concentration of 5.5 mg/ml with phosphate buffered saline (PBS) filtered by 0.22 μm membrane. The MTT solution (50 μl) was added to the wells of 24-well plates with A549, NCI-H460, NCI-H520, and MRC5 cell lines cultured after 24, 48, and 72 hours. The plates were incubated at 37° C. for 2 hours and then moved out. The media of the wells were removed. […]"}, "A549 cell line": {"test_system": "A549 cell line", "assay": "MTT cell proliferation assay, A549", "conditions": "Homo sapiens, 48 hours, read-out: half maximal inhibitory concentration (IC50)", "procedure": "as §1"}, "NCI-H520 cell line": {"test_system": "NCI-H520 cell line", "assay": "MTT cell proliferation assay, NCI-H520", "conditions": "Homo sapiens, 48 hours, read-out: half maximal inhibitory concentration (IC50)", "procedure": "as §1"}, "A549 cells": {"test_system": "A549 cells", "assay": "Side population analysis (Hoechst33342, flow cytometry)", "conditions": "A549, dose of IC50, 48 hours", "procedure": "A549 cells were seeded in the number of about 3×10^5 in 10 cm dish to give adequate number of cells for analysis. The cells were treated with the extract of C. chinensis and the berberine solution in the dose of IC50 for 48 hours. Then, the treated cells were harvested by typsinization and centrifugation. The harvested cells were re-suspended in the number of 1×10^6 cells/ml in culture medium containing 2% FBS. Hoechst33342 dye (5 μg/ml, Invitrogen, Carlsbad, U.S.A.) was added with or without reserpine (50 μM, Sigma, St. Louis, U.S.A.) as a blocking reagent. The cells were further incubated at 37° C. for 2 hours under frequently gentle vortex to ensure uniform staining, and then washed cells with PBS. PI staining (20 ng/ml) was used to determine the live/dead cells. In order to set up the fluorescence compensation, single staining and non-staining groups were prepared. The cell samples were filtered with nylon mesh (35 μm) to prevent cell aggregation. PI-positive dead cells were primary excluded to avoid false positive signals. Then, the Hoechst blue and red dot plotting was used to determine the side population. A gate of a side population was defined by the diminishing region of two samples groups, i.e. with or without reserpine. The percentages of the side population were further analyzed by Flowjo software (TreeStar, Ashland, U.S.A.)."}}, "data": [{"smiles": "COc1ccc2cc3[n+](cc2c1OC)CCc1cc2c(cc1-3)OCO2", "note": "[berberine solution, berberine chloride]", "values": [{"measurement": "IC50", "setting": "NCI-H460 cell line", "value": "~40", "unit": "µM"}, {"measurement": "IC50", "setting": "A549 cell line", "value": "~7", "unit": "µM"}, {"measurement": "IC50", "setting": "NCI-H520 cell line", "value": "~20", "unit": "µM"}, {"measurement": "side population (SP)", "setting": "A549 cells", "value": "considerably diminished"}]}]}
